Experimental data taken from patent publication US9303045B2, “5-HT3 receptor antagonists” (Takeda Pharmaceutical Company Limited, priority 2013, dated 2016).
Structures can show the parent of a compound that is named as a salt. One block for each compound: values may come before it.

Biological target: 5HT3a receptor expressed in HEK-293T cells (Homo sapiens (Human), UniProt P46098)
Test: Inhibition of Ca flux activity of 5HT3 in vitro assay
Type: cell-based
Conditions: calcium flux, 5HT 216 nM, approximate values
Procedure, shortened: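 HEK-293T cells transiently transfected with human 5HT3a, loaded 1 hour at 37° C with calcium dye in HBSS/20 mM HEPES, preincubated with compound (10^−7 to 10^−10, half-log) 10 minutes at room temperature.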

Chain of 5HT3a receptor expressed in HEK-293T cells (P46098 24-478): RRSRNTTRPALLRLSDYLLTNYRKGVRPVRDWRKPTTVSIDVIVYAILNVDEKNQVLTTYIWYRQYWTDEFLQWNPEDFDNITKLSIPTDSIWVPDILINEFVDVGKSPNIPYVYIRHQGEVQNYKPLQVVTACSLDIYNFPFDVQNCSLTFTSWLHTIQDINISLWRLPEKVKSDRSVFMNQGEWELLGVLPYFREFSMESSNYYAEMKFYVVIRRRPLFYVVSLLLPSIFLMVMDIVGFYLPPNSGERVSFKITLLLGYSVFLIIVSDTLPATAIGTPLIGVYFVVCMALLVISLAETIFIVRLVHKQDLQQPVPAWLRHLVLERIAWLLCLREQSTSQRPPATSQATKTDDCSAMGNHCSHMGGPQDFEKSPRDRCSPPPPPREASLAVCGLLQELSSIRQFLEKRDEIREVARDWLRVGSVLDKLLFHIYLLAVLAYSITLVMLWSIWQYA

SMILES: CN1[C@@H]2COC[C@H]1CC(NC(=O)c1cn(CC(F)F)c3ncc(F)cc13)C2 (stereo partly drawn) [Example 109, 1(2,2-difluoroethyl)-5-fluoro-N-((1R,5S,7S)-9-methyl-d3-3-oxa-9-azabicyclo[3.3.1]nonan-7-yl)-1H-pyrrolo[2,3-b]pyridine-3-carboxamide]
IC50: 1.11 nM

SMILES: CC(C)S(=O)(=O)n1cc(C(=O)NC2C[C@H]3COC[C@@H](C2)N3C)c2ccccc21 (stereo partly drawn) [Example 111, N-((1R,5S,7S)-9-methyl-d3-3-oxa-9-azabicyclo[3.3.1]nonan-7-yl)-1-(isopropylsulfonyl)-1H-indole-3-carboxamide, 2,2,2-trifluoroacetate]
IC50: 0.77 nM

IC50: 0.53 nM
SMILES: CN1[C@@H]2COC[C@H]1CC(NC(=O)c1cn(CC(F)(F)F)c3ccc(F)cc13)C2 (stereo partly drawn) [Example 112, 1-(2,2,2-trifluoroethyl)-5-fluoro-N-((1R,5S,7S)-9-methyl-d3-3-oxa-9-azabicyclo[3.3.1]nonan-7-yl)-1H-indole-3-carboxamide, 2,2,2-trifluoroacetate]

SMILES: CN1[C@@H]2COC[C@H]1CC(NC(=O)c1cn(CC(F)F)c3ccc(F)cc13)C2 (stereo partly drawn) [Example 113, 1-(2,2-difluoroethyl)-5-fluoro-N-((1R,5S,7S)-9-methyl-d3-3-oxa-9-azabicyclo[3.3.1]nonan-7-yl)-1H-indole-3-carboxamide, 2,2,2-trifluoroacetate]
IC50: 0.23 nM

SMILES: O=C(N[C@@H]1CN2CCC1CC2)c1cn(CC(F)F)c2ncccc12 [Example 116, (S)-1-(2,2-difluoroethyl)-N-(quinuclidin-3-yl)-1H-pyrrolo[2,3-b]pyridine-3-carboxamide, 2,2,2-trifluoroacetate]
IC50: > 1000 nM

SMILES: CN1[C@@H]2COC[C@H]1CC(NC(=O)c1cn(-c3cccnn3)c3ccccc13)C2 (stereo partly drawn) [Example 117, N-((1R,5S,7S)-9-methyl-3-oxa-9-azabicyclo[3.3.1]nonan-7-yl)-1-(pyridazin-3-yl)-1H-indole-3-carboxamide, 2,2,2-trifluoroacetate]
IC50: 0.39 nM

SMILES: CN1C2COCC1CC(NC(=O)c1cn(-c3nccs3)c3ccccc13)C2 [Example 118, N-((1R,5S,7S)-9-methyl-3-oxa-9-azabicyclo[3.3.1]nonan-7-yl)-1-(thiazol-2-yl)-1H-indole-3-carboxamide, 2,2,2-trifluoroacetate]
IC50: 0.86 nM

SMILES: CN1C2COCC1CC(NC(=O)c1cn(-c3cncnc3)c3ccccc13)C2 [Example 120, N-((1R,5S,7S)-9-methyl-3-oxa-9-azabicyclo[3.3.1]nonan-7-yl)-1-(pyrimidin-5-yl)-1H-indole-3-carboxamide, 2,2,2-trifluoroacetate]
IC50: 0.39 nM

SMILES: CN1[C@@H]2COC[C@H]1CC(NC(=O)c1cn(-c3ncccn3)c3ccccc13)C2 (stereo partly drawn) [Example 122, N-((1R,5S,7S)-9-methyl-d3-3-oxa-9-azabicyclo[3.3.1]nonan-7-yl)-1-(pyrimidin-2-yl)-1H-indole-3-carboxamide, 2,2,2-trifluoroacetate]
IC50: 1.01 nM

SMILES: CN1[C@@H]2COC[C@H]1CC(NC(=O)c1cn(-c3cccnn3)c3ccccc13)C2 (stereo partly drawn) [Example 123, N-((1R,5S,7S)-9-methyl-d3-3-oxa-9-azabicyclo[3.3.1]nonan-7-yl)-1-(pyridazin-3-yl)-1H-indole-3-carboxamide, 2,2,2-trifluoroacetate]
IC50: 0.28 nM

SMILES: CN1[C@@H]2COC[C@H]1CC(NC(=O)c1nn(CC(F)(F)F)c3ccccc13)C2 (stereo partly drawn) [Example 126, N-((1R,5S,7S)-9-methyl-d3-3-oxa-9-azabicyclo[3.3.1]nonan-7-yl)-1-(2,2,2-trifluoroethyl)-1H-indazole-3-carboxamide, 2,2,2-trifluoroacetate]
IC50: 0.86 nM

SMILES: CN1[C@@H]2COC[C@H]1CC(NC(=O)c1cn(CCF)c3ccccc13)C2 (stereo partly drawn) [Example 127, 1-(2-fluoroethyl)-N-((1R,5S,7S)-9-methyl-d3-3-oxa-9-azabicyclo[3.3.1]nonan-7-yl)-1H-indole-3-carboxamide, 2,2,2-trifluoroacetate]
IC50: 0.22 nM

SMILES: O=C(OC1C[C@H]2COC[C@@H](C1)N2)c1cn(-c2nccs2)c2ccccc12 (stereo partly drawn) [Example 128, (1R,5S,7S)-3-oxa-9-azabicyclo[3.3.1]nonan-7-yl 1-(thiazol-2-yl)-1H-indole-3-carboxamide, 2,2,2-trifluoroacetate]
IC50: 2.16 nM

SMILES: CN1[C@@H]2COC[C@H]1C[C@@H](NC(=O)c1cn(-c3cnccn3)c3ccccc13)C2 [Example 129, N-((1R,5S,7S)-9-methyl-3-oxa-9-azabicyclo[3.3.1]nonan-7-yl)-1-(pyrazin-2-yl)-1H-indole-3-carboxamide, di-2,2,2-trifluoroacetate]
IC50: 0.64 nM

SMILES: CN1[C@@H]2COC[C@H]1CC(NC(=O)c1cn(-c3cnccn3)c3ccccc13)C2 (stereo partly drawn) [Example 130, N-((1R,5S,7S)-9-methyl-d3-3-oxa-9-azabicyclo[3.3.1]nonan-7-yl)-1-(pyrazin-2-yl)-1H-indole-3-carboxamide]
IC50: 0.55 nM

SMILES: CC(C)S(=O)(=O)n1cc(C(=O)O[C@H]2C[C@H]3COC[C@@H](C2)N3)c2ccccc21 [Example 131, (1R,5S,7S)-3-oxa-9-azabicyclo[3.3.1]nonan-7-yl 1-(isopropylsulfonyl)-1H-indole-3-carboxylate, 2,2,2-trifluoroacetate]
IC50: 1.93 nM

IC50: 2.3 nM
SMILES: CS(=O)(=O)n1cc(C(=O)O[C@H]2C[C@H]3COC[C@@H](C2)N3)c2cc(F)ccc21 [Example 132, (1R,5S,7S)-3-oxa-9-azabicyclo[3.3.1]nonan-7-yl 5-fluoro-1-(methylsulfonyl)-1H-indole-3-carboxylate, 2,2,2-trifluoroacetate]

SMILES: CCS(=O)(=O)n1cc(C(=O)OC2C[C@H]3COC[C@@H](C2)N3)c2ccccc21 (stereo partly drawn) [Example 133, (1R,5S,7S)-3-oxa-9-azabicyclo[3.3.1]nonan-7-yl 1-(ethylsulfonyl)-1H-indole-3-carboxylate, 2,2,2-trifluoroacetate]
IC50: 1.5 nM

SMILES: O=C(OC1C[C@H]2COC[C@@H](C1)N2)c1cn(S(=O)(=O)C2CC2)c2ccccc12 (stereo partly drawn) [Example 134, (1R,5S,7S)-3-oxa-9-azabicyclo[3.3.1]nonan-7-yl 1-(cyclopropylsulfonyl)-1H-indole-3-carboxylate, 2,2,2-trifluoroacetate]
IC50: 1.99 nM

SMILES: CC(C)CS(=O)(=O)n1cc(C(=O)OC2C[C@H]3COC[C@@H](C2)N3)c2ccccc21 (stereo partly drawn) [Example 135, (1R,5S,7S)-3-oxa-9-azabicyclo[3.3.1]nonan-7-yl 1-(isobutylsulfonyl)-1H-indole-3-carboxylate, 2,2,2-trifluoroacetate]
IC50: 11.7 nM

SMILES: O=C(O[C@H]1C[C@H]2COC[C@@H](C1)N2)c1cn(-c2cccnn2)c2ccccc12 [Example 136, (1R,5S,7s)-3-oxa-9-azabicyclo[3.3.1]nonan-7-yl 1-(pyridazin-3-yl)-1H-indole-3-carboxylate, 2,2,2-trifluoroacetic acid salt]
IC50: 0.914 nM

SMILES: O=C(OC1CC2COCC(C1)N2)c1cn(-c2cnccn2)c2ccccc12 [Example 141, (1R,5S,7s)-3-oxa-9-azabicyclo[3.3.1]nonan-7-yl 1-(pyrazin-2-yl)-1H-indole-3-carboxylate, 2,2,2-trifluoroacetic acid salt]
IC50: 1.12 nM

SMILES: O=C(OC1CC2COCC(C1)N2)c1cn(-c2cnsc2)c2ccccc12 [Example 143, (1R,5S,7s)-3-oxa-9-azabicyclo[3.3.1]nonan-7-yl 1-(isothiazol-4-yl)-1H-indole-3-carboxylate, 2,2,2-trifluoroacetic acid salt]
IC50: 0.415 nM

SMILES: CN1[C@@H]2COC[C@H]1C[C@@H](NC(=O)c1cn(-c3cnsc3)c3ccccc13)C2 [Example 144, 1-(isothiazol-4-yl)-N-((1R,5S,7s)-9-methyl-3-oxa-9-azabicyclo[3.3.1]nonan-7-yl)-1H-indole-3-carboxamide, 2,2,2-trifluoroacetic acid salt]
IC50: 0.61 nM

SMILES: CN1[C@@H]2COC[C@H]1C[C@@H](NC(=O)c1cn(-c3nccs3)c3ncccc13)C2 [Example 146, N-((1R,5S,7s)-9-methyl-3-oxa-9-azabicyclo[3.3.1]nonan-7-yl)-1-(thiazol-2-yl)-1H-pyrrolo[2,3-b]pyridine-3-carboxamide, 2,2,2-trifluoroacetic acid salt]
IC50: 0.702 nM

SMILES: CN1[C@@H]2COC[C@H]1C[C@@H](NC(=O)c1cn(-c3cscn3)c3ncccc13)C2 [Example 147, N-((1R,5S,7s)-9-methyl-3-oxa-9-azabicyclo[3.3.1]nonan-7-yl)-1-(thiazol-4-yl)-1H-pyrrolo[2,3-b]pyridine-3-carboxamide, 2,2,2-trifluoroacetic acid salt]
IC50: 0.4 nM

SMILES: CN1C2COCC1CC(NC(=O)c1cn(-c3cncs3)c3ncccc13)C2 [Example 148, N-((1R,5S,7s)-9-methyl-3-oxa-9-azabicyclo[3.3.1]nonan-7-yl)-1-(thiazol-5-yl)-1H-pyrrolo[2,3-b]pyridine-3-carboxamide, 2,2,2-trifluoroacetic acid salt]
IC50: 0.4 nM

SMILES: CN1C2COCC1CC(NC(=O)c1cn(-c3ccsn3)c3ccccc13)C2 [Example 153, 1-(isothiazol-3-yl)-N-((1R,5S,7s)-9-methyl-3-oxa-9-azabicyclo[3.3.1]nonan-7-yl)-1H-indole-3-carboxamide, 2,2,2-trifluoroacetic acid salt]
IC50: 0.87 nM

SMILES: CN1[C@@H]2COC[C@H]1C[C@@H](NC(=O)c1cn(-c3cncn3C)c3ccccc13)C2 [Example 154, 1-(1-methyl-1H-imidazol-5-yl)-N-((1R,5S,7s)-9-methyl-3-oxa-9-azabicyclo[3.3.1]nonan-7-yl)-1H-indole-3-carboxamide]
IC50: 0.328 nM

SMILES: CN1C2COCC1CC(NC(=O)c1cn(-c3ccns3)c3ccccc13)C2 [Example 158, 1-(isothiazol-5-yl)-N-((1R,5S,7s)-9-methyl-3-oxa-9-azabicyclo[3.3.1]nonan-7-yl)-1H-indole-3-carboxamide, 2,2,2-trifluoroacetic acid salt]
IC50: 1.36 nM

SMILES: CN1C2COCC1CC(NC(=O)c1cn(CC#N)c3ccccc13)C2 [Example 159, 1-(cyanomethyl)-N-((1R,5S,7s)-9-methyl-3-oxa-9-azabicyclo[3.3.1]nonan-7-yl)-1H-indole-3-carboxamide, 2,2,2-trifluoroacetic acid salt]
IC50: 0.298 nM
